In patent publication US9115358B2, “Moenomycin biosynthesis-related compositions and methods of use thereof” (priority 2006, dated 2015):
“Also recorded” adds a separate entry of the source.

Assays:
bacteria = settings: cited from earlier work
B. cereus = test: Antibiotic disc diffusion assay of antibacterial activity against B. cereus; format: cell-based, Bacillus cereus ATCC19637; settings: purified moe A intermediates on B. cereus reporter strain; FIG. 19, 50-200 nM per disc
Description: Spots 1 and 2—moe A (100 and 10 nM per disc, respectively); 3—compound 15 (100 nM); 4—compound 16 (100 nM), 5—compound 17 (100 nM), 6—compound 24 (100 nM), 7—mixture of compounds 22 and 23 (200 nM), 8—compound 11 (100 nM), 9—mixture of compounds 22 and 23 (50 nM), 10—mixture of compounds 2 and 3 (200 nM), 11—compound 1 (200 nM), 12—extract from 5 g S. lividans TK24 mycelial cake.
Moes producers S. ghanaensis ATCC14672 and S. bambergiensis NRRL-B12101 were obtained from American Type Culture Collection (“ATCC”) and the U.S. Department of Agriculture, respectively. S. lividans TK24, S. coelicolor M145 (Kieser 2000), S. cyanogenus S136 (Westrich 1999) were used in studies on moe A resistance in Streptomyces. Bacillus cereus ATCC19637 was used as a moe-sensitive test culture.
For all moe production analysis procedures, equal amounts of biomass (wet weight) and fermentation medium were used. […]
Heterologous expression of moe biosynthetic genes in S. lividans TK24 leads to the production of moe derivatives and intermediates. […] Antibiotic disc diffusion assay, LC-MS, MS/MS and determination of accurate mass spectra of moenomycins were carried out as described in (Ostash 2007). ^1H NMR spectra of compound 11 (FIG. 4) were recorded on a Varian Inova 500 (500 MHz) instrument in D2O (4.80 ppm). […]

Compound	activity in vivo (biological / antibacterial activity) (bacteria)	antibacterial activity (bioactivity) in disk diffusion assay (B. cereus)
Neryl-moenomycin	biologically inactive	
C=C(C/C=C(\C)CCC=C(C)C)CCC(C)(C)/C=C/CC/C(C)=C\CO[C@H](COP(=O)(O)OC1OC(C(N)=O)C(C)(O)C(OC(N)=O)C1OC1OC(COC2OC(CO)C(O)C(O)C2O)C(O)C(O)C1NC(C)=O)C(=O)O (some centres unmarked) [Compound 11]		has biological activity; also recorded: biologically active
